# Experimental data published in ChEMBL document CHEMBL3885881, “DrugMatrix”.
# Species: Rattus norvegicus
# Test: DrugMatrix - Regimen: Daily Repeat
# Type: toxicity, organism-based, Sprague-Dawley
# Design: regimen Daily Repeat, gender Male, age 6-8 weeks
# Settings: in vivo, po, route oral GAVAGE, […]; for ALKALINE PHOSPHATASE / ASPARTATE AMINOTRANSFERASE / BLOOD UREA NITROGEN / CARBON DIOXIDE / CHLORIDE / CHOLESTEROL / CREATINE PHOSPHOKINASE / CREATININE / GLUCOSE / LACTATE DEHYDROGENASE / LIPASE / PHOSPHORUS / POTASSIUM / SODIUM / TOTAL BILIRUBIN / TOTAL PROTEIN / URIC ACID / ALANINE AMINOTRANSFERASE / ALBUMIN: tissue Plasma; for BASOPHIL / EOSINOPHIL / ERYTHROCYTE COUNT / HEMATOCRIT / HEMOGLOBIN / LEUKOCYTE COUNT / LYMPHOCYTE / MEAN CORPUSCULAR HEMOGLOBIN / MEAN CORPUSCULAR HEMOGLOBIN CONCENTRATION / MEAN CORPUSCULAR VOLUME / MONOCYTE / NEUTROPHIL / PLATELET COUNT / ABSOLUTE BASOPHIL / ABSOLUTE EOSINOPHIL / ABSOLUTE LYMPHOCYTE / ABSOLUTE MONOCYTE / ABSOLUTE SEGMENTED NEUTROPHIL / NUCLEATED RED BLOOD CELLS: tissue Blood
# [1] = 23 mg/kg, 120 h, dose level Low, time 5 day
# [2] = 23 mg/kg, dose level High, time 28 day
# [3] = 64 mg/kg, 72 h, dose level M1, time 3 day
# [4] = 64 mg/kg, 120 h, dose level M1, time 5 day
structure (smiles),measurement,setting,value
CC1=C(CC(=O)O)c2cc(F)ccc2/C1=C\c1ccc([S+](C)[O-])cc1 (stereo unspecified),ALKALINE PHOSPHATASE,[1],330 u/L
same,ASPARTATE AMINOTRANSFERASE,[1],79.33 u/L
same,BLOOD UREA NITROGEN,[1],14.33 mg/dL
same,CARBON DIOXIDE,[1],29.33 mmol/L
same,CHLORIDE,[1],100.67 MEQ/L
same,CHOLESTEROL,[1],85 mg/dL
same,CREATINE PHOSPHOKINASE,[1],210.67 u/L
same,CREATININE,[1],0.2 mg/dL
same,GLUCOSE,[1],156 mg/dL
same,LACTATE DEHYDROGENASE,[1],80 u/L
same,LIPASE,[1],11.67 u/L
same,PHOSPHORUS,[1],10.87 mg/dL
same,POTASSIUM,[1],5.36 MEQ/L
same,SODIUM,[1],146.07 MEQ/L
same,TOTAL BILIRUBIN,[1],0.17 mg/dL
same,TOTAL PROTEIN,[1],6.1 G/DL
same,URIC ACID,[1],0.77 mg/dL
same,BASOPHIL,[2],0.35%
same,EOSINOPHIL,[2],0.51%
same,ERYTHROCYTE COUNT,[2],8.35 x10E6/uL
same,HEMATOCRIT,[2],50.37%
same,HEMOGLOBIN,[2],16.23 G/DL
same,LEUKOCYTE COUNT,[2],13.2 x10E3/uL
same,LYMPHOCYTE,[2],85.99%
same,MEAN CORPUSCULAR HEMOGLOBIN,[2],19.47 pg
same,MEAN CORPUSCULAR HEMOGLOBIN CONCENTRATION,[2],32.25 G/DL
same,MEAN CORPUSCULAR VOLUME,[2],60.4 fL
same,MONOCYTE,[2],1.36%
same,NEUTROPHIL,[2],10.23%
same,PLATELET COUNT,[2],1228.2 x10E3/uL
same,ALANINE AMINOTRANSFERASE,[2],29 u/L
same,ALBUMIN,[2],3.94 G/DL
same,ALKALINE PHOSPHATASE,[2],227.1 u/L
same,ASPARTATE AMINOTRANSFERASE,[2],60.9 u/L
same,BLOOD UREA NITROGEN,[2],12.3 mg/dL
same,CHLORIDE,[2],106.6 MEQ/L
same,CHOLESTEROL,[2],55 mg/dL
same,CREATINE PHOSPHOKINASE,[2],162.4 u/L
same,CREATININE,[2],0.52 mg/dL
same,GLUCOSE,[2],134.2 mg/dL
same,PHOSPHORUS,[2],11.59 mg/dL
same,POTASSIUM,[2],6.38 MEQ/L
same,SODIUM,[2],153.3 MEQ/L
same,TOTAL BILIRUBIN,[2],0.22 mg/dL
same,TOTAL PROTEIN,[2],6.6 G/DL
same,ABSOLUTE BASOPHIL,[3],0 CELLS/uL
same,ABSOLUTE EOSINOPHIL,[3],0 CELLS/uL
same,ABSOLUTE LYMPHOCYTE,[3],23014.33 CELLS/uL
same,ABSOLUTE MONOCYTE,[3],921.67 CELLS/uL
same,ABSOLUTE SEGMENTED NEUTROPHIL,[3],4264 CELLS/uL
same,BASOPHIL,[3],0%
same,EOSINOPHIL,[3],0%
same,ERYTHROCYTE COUNT,[3],5.01 x10E6/uL
same,HEMATOCRIT,[3],31.37%
same,HEMOGLOBIN,[3],12.4 G/DL
same,LEUKOCYTE COUNT,[3],28.2 x10E3/uL
same,LYMPHOCYTE,[3],80.67%
same,MEAN CORPUSCULAR HEMOGLOBIN,[3],24.8 pg
same,MEAN CORPUSCULAR HEMOGLOBIN CONCENTRATION,[3],39.53 G/DL
same,MEAN CORPUSCULAR VOLUME,[3],62.6 fL
same,MONOCYTE,[3],3.33%
same,NEUTROPHIL,[3],16%
same,NUCLEATED RED BLOOD CELLS,[3],0 /100WBC
same,PLATELET COUNT,[3],1053 x10E3/uL
same,ALANINE AMINOTRANSFERASE,[3],55.67 u/L
same,ALBUMIN,[3],3.33 G/DL
same,ALKALINE PHOSPHATASE,[3],252 u/L
same,ASPARTATE AMINOTRANSFERASE,[3],68 u/L
same,BLOOD UREA NITROGEN,[3],9 mg/dL
same,CARBON DIOXIDE,[3],22.33 mmol/L
same,CHLORIDE,[3],105 MEQ/L
same,CHOLESTEROL,[3],84.33 mg/dL
same,CREATINE PHOSPHOKINASE,[3],173.33 u/L
same,CREATININE,[3],0.16 mg/dL
same,GLUCOSE,[3],162.67 mg/dL
same,LACTATE DEHYDROGENASE,[3],160.33 u/L
same,LIPASE,[3],10.33 u/L
same,PHOSPHORUS,[3],9.7 mg/dL
same,POTASSIUM,[3],6.43 MEQ/L
same,SODIUM,[3],144.3 MEQ/L
same,TOTAL BILIRUBIN,[3],0.17 mg/dL
same,TOTAL PROTEIN,[3],5.17 G/DL
same,URIC ACID,[3],1.37 mg/dL
same,ABSOLUTE BASOPHIL,[4],0 CELLS/uL
same,ABSOLUTE EOSINOPHIL,[4],0 CELLS/uL
same,ABSOLUTE LYMPHOCYTE,[4],11762.67 CELLS/uL
same,ABSOLUTE MONOCYTE,[4],305.67 CELLS/uL
same,ABSOLUTE SEGMENTED NEUTROPHIL,[4],2898.33 CELLS/uL
same,BASOPHIL,[4],0%
same,EOSINOPHIL,[4],0%
same,ERYTHROCYTE COUNT,[4],4.62 x10E6/uL
same,HEMATOCRIT,[4],30.03%
same,HEMOGLOBIN,[4],11.8 G/DL
same,LEUKOCYTE COUNT,[4],14.97 x10E3/uL
same,LYMPHOCYTE,[4],78.67%
same,MEAN CORPUSCULAR HEMOGLOBIN,[4],25.5 pg
same,MEAN CORPUSCULAR HEMOGLOBIN CONCENTRATION,[4],39.3 G/DL
same,MEAN CORPUSCULAR VOLUME,[4],64.87 fL
same,MONOCYTE,[4],2%
same,NEUTROPHIL,[4],19.33%
same,NUCLEATED RED BLOOD CELLS,[4],0 /100WBC
same,PLATELET COUNT,[4],1198 x10E3/uL
same,ALANINE AMINOTRANSFERASE,[4],48.67 u/L
same,ALBUMIN,[4],3.57 G/DL
same,ALKALINE PHOSPHATASE,[4],225.67 u/L
same,ASPARTATE AMINOTRANSFERASE,[4],64.67 u/L
same,BLOOD UREA NITROGEN,[4],11 mg/dL
same,CARBON DIOXIDE,[4],31.67 mmol/L
same,CHLORIDE,[4],101.33 MEQ/L
same,CHOLESTEROL,[4],88.33 mg/dL
same,CREATINE PHOSPHOKINASE,[4],237.33 u/L
same,CREATININE,[4],0.18 mg/dL
same,GLUCOSE,[4],174.67 mg/dL
same,LACTATE DEHYDROGENASE,[4],137.33 u/L
same,LIPASE,[4],10.67 u/L
same,PHOSPHORUS,[4],10.57 mg/dL
same,POTASSIUM,[4],5.08 MEQ/L
same,SODIUM,[4],146.77 MEQ/L
same,TOTAL BILIRUBIN,[4],0.13 mg/dL
same,TOTAL PROTEIN,[4],5.57 G/DL
same,URIC ACID,[4],0.5 mg/dL
